In US12077503B2, “Substituted cyclic amides and their use as herbicides” (FMC CORPORATION, priority 2015, dated 2024):

Key:
Type in all cases: in vivo
Kochia (Kochia scoparia) [1] = assay: Test A preemergence; settings: Bassia scoparia, pre-emergence, 240 h, Preemergence; for pest or weed control at 31 g/ha: 31 g ai/ha, 0 to 100 scale where 0 is no effect and 100 is complete control, read-out: Kochia plant response rating; for pest or weed control at 125 g/ha: 125 g ai/ha, 0 to 100 scale (0 no effect, 100 complete control), read-out: Plant response rating, Kochia
Summary of the method: (§1)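 Ratings of 0 (no effect) to 100 (complete control) come from visual comparison with untreated controls roughly 10 d after treatment. Test chemicals, formulated in a non-phytotoxic solvent mixture with surfactant, were applied either as a preemergence directed soil spray on seeded soil or postemergence to one- to two-leaf plants 2 to 10 cm tall.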

[2] = tested on: barnyardgrass (Echinochloa crus-galli); assay: Test A preemergence; settings: Echinochloa crus-galli, pre-emergence, 240 h, Preemergence; for pest or weed control at 31 g/ha: 31 g ai/ha, 0 to 100 scale where 0 is no effect and 100 is complete control, read-out: Barnyardgrass plant response rating; for pest or weed control at 125 g/ha: 125 g ai/ha, 0 to 100 scale (0 no effect, 100 complete control), read-out: Plant response rating, Barnyardgrass
Summary of the method: as §1

[3] = tested on: giant foxtail (Setaria faberii); assay: Test A preemergence; settings: Setaria faberi, pre-emergence, 240 h, Preemergence; for pest or weed control at 31 g/ha: 31 g ai/ha, 0 to 100 scale where 0 is no effect and 100 is complete control, read-out: Foxtail, Giant plant response rating; for pest or weed control at 125 g/ha: 125 g ai/ha, 0 to 100 scale (0 no effect, 100 complete control), read-out: Plant response rating, Foxtail, Giant
Summary of the method: as §1

[4] = tested on: pigweed (Amaranthus retroflexus); assay: Test A preemergence; settings: Amaranthus retroflexus, pre-emergence, 240 h, Preemergence; for pest or weed control at 31 g/ha: 31 g ai/ha, 0 to 100 scale where 0 is no effect and 100 is complete control, read-out: Pigweed plant response rating; for pest or weed control at 125 g/ha: 125 g ai/ha, 0 to 100 scale (0 no effect, 100 complete control), read-out: Plant response rating, Pigweed
[5] = tested on: ragweed (common ragweed, Ambrosia elatior); assay: Test A preemergence; settings: Ambrosia artemisiifolia, pre-emergence, 240 h, Preemergence; for pest or weed control at 31 g/ha: 31 g ai/ha, 0 to 100 scale where 0 is no effect and 100 is complete control, read-out: Ragweed plant response rating; for pest or weed control at 125 g/ha: 125 g ai/ha, 0 to 100 scale (0 no effect, 100 complete control), read-out: Plant response rating, Ragweed
Summary of the method: as §1

[6] = tested on: ryegrass, Italian (Italian ryegrass, Lolium multiflorum); assay: Test A preemergence; settings: Lolium multiflorum, pre-emergence, 240 h, Preemergence; for pest or weed control at 31 g/ha: 31 g ai/ha, 0 to 100 scale where 0 is no effect and 100 is complete control, read-out: Ryegrass, Italian plant response rating; for pest or weed control at 125 g/ha: 125 g ai/ha, 0 to 100 scale (0 no effect, 100 complete control), read-out: Plant response rating, Ryegrass, Italian
Summary of the method: as §1

Kochia (Kochia scoparia) [7] = assay: Test A postemergence; settings: Bassia scoparia, post-emergence, 240 h, Postemergence, read-out: Kochia plant response rating (0 to 100 scale); for pest or weed control at 125 g/ha: 125 g ai/ha, visual rating about 10 d after treatment; for pest or weed control at 31 g/ha: 31 g ai/ha, 0 is no effect, 100 is complete control
Summary of the method: as §1

[8] = tested on: barnyardgrass (Echinochloa crus-galli); assay: Test A postemergence; settings: Echinochloa crus-galli, post-emergence, 240 h, Postemergence; for pest or weed control at 125 g/ha: 125 g ai/ha, visual rating about 10 d after treatment, read-out: Barnyardgrass plant response rating (0 to 100 scale, 0 no effect, 100 complete control); for pest or weed control at 31 g/ha: 31 g ai/ha, 0 is no effect, 100 is complete control, read-out: Barnyardgrass plant response rating (0 to 100 scale)
Summary of the method: as §1

[9] = tested on: blackgrass (Alopecurus myosuroides); assay: Test A postemergence; settings: Alopecurus myosuroides, post-emergence, 240 h, Postemergence, read-out: Blackgrass plant response rating (0 to 100 scale); for pest or weed control at 125 g/ha: 125 g ai/ha, visual rating about 10 d after treatment; for pest or weed control at 31 g/ha: 31 g ai/ha, 0 is no effect, 100 is complete control
Summary of the method: as §1

corn (Zea mays) = assay: Test A postemergence; settings: Zea mays, post-emergence, 240 h, Postemergence, read-out: Corn plant response rating (0 to 100 scale); for plant injury at 125 g/ha: 125 g ai/ha, visual rating about 10 d after treatment; for plant injury at 31 g/ha: 31 g ai/ha, 0 is no effect, 100 is complete control
Summary of the method: as §1

[10] = tested on: giant foxtail (Setaria faberii); assay: Test A postemergence; settings: Setaria faberi, post-emergence, 240 h, Postemergence, read-out: Foxtail, Giant plant response rating (0 to 100 scale); for pest or weed control at 125 g/ha: 125 g ai/ha, visual rating about 10 d after treatment; for pest or weed control at 31 g/ha: 31 g ai/ha, 0 is no effect, 100 is complete control
Summary of the method: as §1

[11] = tested on: pigweed (Amaranthus retroflexus); assay: Test A postemergence; settings: Amaranthus retroflexus, post-emergence, 240 h, Postemergence, read-out: Pigweed plant response rating (0 to 100 scale); for pest or weed control at 125 g/ha: 125 g ai/ha, visual rating about 10 d after treatment; for pest or weed control at 31 g/ha: 31 g ai/ha, 0 is no effect, 100 is complete control
Summary of the method: as §1

[12] = tested on: ragweed (common ragweed, Ambrosia elatior); assay: Test A postemergence; settings: Ambrosia artemisiifolia, post-emergence, 240 h, Postemergence, read-out: Ragweed plant response rating (0 to 100 scale); for pest or weed control at 125 g/ha: 125 g ai/ha, visual rating about 10 d after treatment; for pest or weed control at 31 g/ha: 31 g ai/ha, 0 is no effect, 100 is complete control
Summary of the method: as §1

[13] = tested on: ryegrass, Italian (Italian ryegrass, Lolium multiflorum); assay: Test A postemergence; settings: Lolium multiflorum, post-emergence, 240 h, Postemergence, read-out: Ryegrass, Italian plant response rating (0 to 100 scale); for pest or weed control at 125 g/ha: 125 g ai/ha, visual rating about 10 d after treatment; for pest or weed control at 31 g/ha: 31 g ai/ha, 0 is no effect, 100 is complete control
Summary of the method: as §1

[14] = tested on: wheat (Triticum aestivum); assay: Test A postemergence; settings: Triticum aestivum, post-emergence, 240 h, Postemergence, read-out: Wheat plant response rating (0 to 100 scale); for plant injury at 125 g/ha: 125 g ai/ha, visual rating about 10 d after treatment; for plant injury at 31 g/ha: 31 g ai/ha, 0 is no effect, 100 is complete control
Summary of the method: as §1

[15] = tested on: barnyardgrass (Echinochloa crus-galli); assay: Test B flooded paddy test; settings: Echinochloa crus-galli, 360 h, Flood, 250 g ai/ha; visually evaluated after 13 to 15 d; read-out: Plant response rating, Barnyardgrass (0 to 100 scale where 0 is no effect and 100 is complete control)
Summary of the method: (§2)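 Compound goes directly into floodwater once pots are flooded 3 cm above soil, targeting plants at two leaves; the water depth is then held for the test duration. Plants sit 13–15 d in a greenhouse and are rated visually, 100 denoting complete control.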

[16] = tested on: ducksalad (Heteranthera limosa); assay: Test B flooded paddy test; settings: Heteranthera limosa, 360 h, Flood, 250 g ai/ha; visually evaluated after 13 to 15 d; read-out: Plant response rating, Ducksalad (0 to 100 scale where 0 is no effect and 100 is complete control)
Summary of the method: as §2

rice (Oryra sativa) = assay: Test B flooded paddy test; settings: Oryza sativa, 360 h, Flood, 250 g ai/ha; visually evaluated after 13 to 15 d; read-out: Plant response rating, Rice (0 to 100 scale where 0 is no effect and 100 is complete control)
Summary of the method: as §2

[17] = tested on: sedge, umbrella (small-flower umbrella sedge, Cyperus difformis); assay: Test B flooded paddy test; settings: Cyperus difformis, 360 h, Flood, 250 g ai/ha; visually evaluated after 13 to 15 d; read-out: Plant response rating, Sedge, Umbrella (0 to 100 scale where 0 is no effect and 100 is complete control)
Summary of the method: as §2

SMILES | pest or weed control at 31 g/ha (Kochia (Kochia scoparia) [1]) [%] | pest or weed control at 125 g/ha (Kochia (Kochia scoparia) [1]) [%] | pest or weed control at 31 g/ha [2] [%] | pest or weed control at 125 g/ha [2] [%] | pest or weed control at 31 g/ha [3] [%] | pest or weed control at 125 g/ha [3] [%] | pest or weed control at 31 g/ha [4] [%] | pest or weed control at 125 g/ha [4] [%] | pest or weed control at 31 g/ha [5] [%] | pest or weed control at 125 g/ha [5] [%] | pest or weed control at 31 g/ha [6] [%] | pest or weed control at 125 g/ha [6] [%] | pest or weed control at 125 g/ha (Kochia (Kochia scoparia) [7]) [%] | pest or weed control at 31 g/ha (Kochia (Kochia scoparia) [7]) [%] | pest or weed control at 125 g/ha [8] [%] | pest or weed control at 31 g/ha [8] [%] | pest or weed control at 125 g/ha [9] [%] | pest or weed control at 31 g/ha [9] [%] | plant injury at 125 g/ha (corn (Zea mays)) [%] | plant injury at 31 g/ha (corn (Zea mays)) [%] | also measured
CN1C[C@H](c2ccc3c(c2)OC(F)(F)O3)[C@@H](C(=O)Nc2ccc(F)nc2F)C1=O [Compound 1350] | 30 | 70 | 90 | 90 | 100 | 100 | 70 | 90 | 50 | 80 | 30 | 30 | 70 | 50 | 90 | 60 | 50 | 0 | 50 | 30 | pest or weed control at 125 g/ha [10]: 90%; pest or weed control at 31 g/ha [10]: 70%; pest or weed control at 125 g/ha [11]: 70%; pest or weed control at 31 g/ha [11]: 30%; pest or weed control at 125 g/ha [12]: 60%; pest or weed control at 31 g/ha [12]: 0%; pest or weed control at 125 g/ha [13]: 20%; pest or weed control at 31 g/ha [13]: 20%; plant injury at 125 g/ha [14]: 50%; plant injury at 31 g/ha [14]: 20%; pest or weed control at 250 g/ha [15]: 90%; pest or weed control at 250 g/ha [16]: 90%; pest or weed control at 250 g/ha (rice (Oryra sativa)): 0%; pest or weed control at 250 g/ha [17]: 0%
COc1ccc([C@H]2CN(C)C(=O)[C@@H]2C(=O)Nc2cccc(F)c2F)cc1 [Compound 1343] | 0 | 40 | 90 | 90 | 100 | 100 | 0 | 30 | 90 | 0 | 0 | 30 | 50 | 0 | 90 | 60 | 0 | 0 | 0 | 0 | pest or weed control at 125 g/ha [10]: 90%; pest or weed control at 31 g/ha [10]: 60%; pest or weed control at 125 g/ha [11]: 0%; pest or weed control at 31 g/ha [11]: 0%; pest or weed control at 125 g/ha [12]: 30%; pest or weed control at 31 g/ha [12]: 0%; pest or weed control at 125 g/ha [13]: 20%; pest or weed control at 31 g/ha [13]: 0%; plant injury at 125 g/ha [14]: 30%; plant injury at 31 g/ha [14]: 0%; pest or weed control at 250 g/ha [15]: 95%; pest or weed control at 250 g/ha [16]: 98%; pest or weed control at 250 g/ha (rice (Oryra sativa)): 0%; pest or weed control at 250 g/ha [17]: 0%
